Assay results reported in ChEMBL document CHEMBL5465560, “Selectivity Literature for EUbOPEN Chemogenomic Library” (2024).

How the values were obtained:
[1] = molecular target: 4-aminobutyrate aminotransferase, mitochondrial (Homo sapiens, UniProt P80404); experiment: Selectivity interaction (GPCR panel (PDSP screen)) EUB0000311b ABAT
[2] = molecular target: Ribosomal protein S6 kinase alpha-3 (Homo sapiens, UniProt P51812); experiment: Selectivity interaction (KinomeScan (DiscoverX)) EUB0001049a RPS6KA3; conditions: at 1 µM
[3] = molecular target: Tyrosine-protein kinase Fer (Homo sapiens) (UniProt P16591); experiment: Selectivity interaction (KinomeScan (DiscoverX)) EUB0001049a FER; conditions: at 1 µM
[4] = molecular target: Serine/threonine-protein kinase Chk2 (Homo sapiens) (UniProt O96017); experiment: Selectivity interaction (KinomeScan (DiscoverX)) EUB0000666a CHEK2; conditions: at 10 µM
[5] = molecular target: T1, Serine/threonine-protein kinase TBK1 (Homo sapiens) (UniProt Q9UHD2); experiment: Selectivity interaction (ActivX KiNativ screen (kinase selectivity in THP-1 cell lysates)) EUB0000639a TBK1; type: subcellular; conditions: lysate, at 5 µM
T1 sequence (whole entry): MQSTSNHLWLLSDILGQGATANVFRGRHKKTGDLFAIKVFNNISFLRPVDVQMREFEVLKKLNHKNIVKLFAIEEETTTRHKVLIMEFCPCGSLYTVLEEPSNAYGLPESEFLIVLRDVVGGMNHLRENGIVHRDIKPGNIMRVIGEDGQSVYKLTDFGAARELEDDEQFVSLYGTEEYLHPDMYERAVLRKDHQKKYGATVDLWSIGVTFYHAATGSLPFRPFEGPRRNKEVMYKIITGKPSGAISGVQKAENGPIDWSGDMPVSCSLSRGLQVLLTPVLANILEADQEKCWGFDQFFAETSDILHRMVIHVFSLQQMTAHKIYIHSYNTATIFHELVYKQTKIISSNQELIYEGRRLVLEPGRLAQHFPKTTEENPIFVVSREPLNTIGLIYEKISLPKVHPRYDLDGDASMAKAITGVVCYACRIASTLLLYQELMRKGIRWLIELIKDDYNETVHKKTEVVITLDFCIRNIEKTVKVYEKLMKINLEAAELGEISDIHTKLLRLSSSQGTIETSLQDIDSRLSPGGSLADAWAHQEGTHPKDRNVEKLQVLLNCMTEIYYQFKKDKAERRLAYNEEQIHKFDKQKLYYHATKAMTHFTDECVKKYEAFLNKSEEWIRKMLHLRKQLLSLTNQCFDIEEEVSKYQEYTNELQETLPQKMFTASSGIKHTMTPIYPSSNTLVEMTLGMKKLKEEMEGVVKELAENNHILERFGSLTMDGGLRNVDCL

[6] = molecular target: Serine/threonine-protein kinase PLK2 (Homo sapiens, UniProt Q9NYY3); experiment: Selectivity interaction (KinomeScan (DiscoverX)) EUB0000595a PLK2; conditions: at 10 µM
[7] = molecular target: Protein kinase C eta type (Homo sapiens) (UniProt P24723); experiment: Selectivity interaction (Kinase screening (Nanosyn)) EUB0000604a PRKCH
[8] = molecular target: Serine/threonine-protein kinase OSR1 (Homo sapiens) (UniProt O95747); experiment: Selectivity interaction (Ambit KINOMEscan and KiNATiv profiling in Jurkat cells) EUB0000090b OXSR1; type: cell-based; conditions: at 1 µM
[9] = molecular target: Mitogen-activated protein kinase 11 (Homo sapiens) (UniProt Q15759); experiment: Selectivity interaction (KinomeScan (DiscoverX)) EUB0000045b MAPK11
[10] = molecular target: Serine/threonine-protein kinase WNK1 (Homo sapiens) (UniProt Q9H4A3); experiment: Selectivity interaction (ActivX KiNativ screen (ex vivo kinase selectivity in human PBMCs)) EUB0001619a WNK1; type: cell-based; conditions: PBMC, at 1 µM
[11] = molecular target: T2, Non-receptor tyrosine-protein kinase TNK1 (Homo sapiens) (UniProt Q13470); experiment: Selectivity interaction (Kinase panel (Carna Biosciences)) EUB0001542aTs TNK1; conditions: at 1 µM
T2 sequence (whole entry): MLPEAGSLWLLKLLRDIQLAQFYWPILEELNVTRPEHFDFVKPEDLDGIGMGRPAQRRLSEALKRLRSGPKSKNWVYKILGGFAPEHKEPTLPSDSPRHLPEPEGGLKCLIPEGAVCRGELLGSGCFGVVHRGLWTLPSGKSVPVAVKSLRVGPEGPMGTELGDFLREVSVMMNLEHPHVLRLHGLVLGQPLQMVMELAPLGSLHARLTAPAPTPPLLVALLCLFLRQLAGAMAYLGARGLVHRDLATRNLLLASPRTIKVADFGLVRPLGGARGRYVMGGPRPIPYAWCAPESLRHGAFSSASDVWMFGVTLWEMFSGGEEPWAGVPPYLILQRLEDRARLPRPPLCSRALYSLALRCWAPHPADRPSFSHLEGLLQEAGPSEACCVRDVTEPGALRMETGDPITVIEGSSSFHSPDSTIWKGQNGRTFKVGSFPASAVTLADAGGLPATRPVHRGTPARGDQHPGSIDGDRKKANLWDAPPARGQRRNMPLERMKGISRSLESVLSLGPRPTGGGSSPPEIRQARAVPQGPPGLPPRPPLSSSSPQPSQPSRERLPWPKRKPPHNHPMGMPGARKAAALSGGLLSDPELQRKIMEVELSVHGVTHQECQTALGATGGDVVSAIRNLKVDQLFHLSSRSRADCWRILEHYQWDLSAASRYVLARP

Histamine H1 receptor = Histamine H1 receptor (Homo sapiens, UniProt P35367); experiment: Selectivity interaction (Panel of kinases, GPCRs, ion channels and transporters (enzymatic assay)) EUB0000223bCl HRH1
[12] = molecular target: Receptor tyrosine-protein kinase erbB-2 (Homo sapiens, UniProt P04626); experiment: Selectivity interaction (Rxn Biology Kinase assay) EUB0001632a ERBB2; conditions: at 10 µM
Chain of Receptor tyrosine-protein kinase erbB-2 (P04626 whole entry): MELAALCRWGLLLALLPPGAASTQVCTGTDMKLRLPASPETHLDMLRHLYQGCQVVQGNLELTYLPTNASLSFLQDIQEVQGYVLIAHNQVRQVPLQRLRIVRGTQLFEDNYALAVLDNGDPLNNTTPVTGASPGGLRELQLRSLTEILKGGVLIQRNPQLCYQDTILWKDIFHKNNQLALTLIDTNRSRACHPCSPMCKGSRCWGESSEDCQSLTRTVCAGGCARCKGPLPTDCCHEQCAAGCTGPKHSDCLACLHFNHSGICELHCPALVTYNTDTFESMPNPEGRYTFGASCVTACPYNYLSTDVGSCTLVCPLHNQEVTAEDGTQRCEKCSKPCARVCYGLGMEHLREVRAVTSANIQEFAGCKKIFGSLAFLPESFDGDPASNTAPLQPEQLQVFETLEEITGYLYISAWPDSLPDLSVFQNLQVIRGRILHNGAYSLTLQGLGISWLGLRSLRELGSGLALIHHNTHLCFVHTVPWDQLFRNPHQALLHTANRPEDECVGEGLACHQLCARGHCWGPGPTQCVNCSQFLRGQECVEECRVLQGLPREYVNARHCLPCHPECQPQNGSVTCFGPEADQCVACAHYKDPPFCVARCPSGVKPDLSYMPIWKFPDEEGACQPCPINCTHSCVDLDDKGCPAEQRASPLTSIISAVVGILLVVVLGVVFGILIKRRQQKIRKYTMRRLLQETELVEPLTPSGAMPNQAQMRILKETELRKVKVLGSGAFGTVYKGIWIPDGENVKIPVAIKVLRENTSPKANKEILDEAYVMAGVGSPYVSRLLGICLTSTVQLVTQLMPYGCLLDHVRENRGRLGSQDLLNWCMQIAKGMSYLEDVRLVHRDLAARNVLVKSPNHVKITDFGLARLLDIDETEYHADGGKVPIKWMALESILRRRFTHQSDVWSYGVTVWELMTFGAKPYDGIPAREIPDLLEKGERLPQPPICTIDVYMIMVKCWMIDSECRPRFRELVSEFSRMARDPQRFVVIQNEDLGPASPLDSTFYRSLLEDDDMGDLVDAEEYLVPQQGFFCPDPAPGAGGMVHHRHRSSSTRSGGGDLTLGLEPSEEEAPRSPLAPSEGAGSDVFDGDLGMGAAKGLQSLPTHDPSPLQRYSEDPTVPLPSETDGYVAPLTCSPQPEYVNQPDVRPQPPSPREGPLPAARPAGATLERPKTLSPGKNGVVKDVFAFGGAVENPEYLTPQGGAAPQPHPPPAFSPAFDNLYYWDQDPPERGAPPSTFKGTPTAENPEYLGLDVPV

Chain of Mitogen-activated protein kinase 11 (Homo sapiens) (Q15759 whole entry): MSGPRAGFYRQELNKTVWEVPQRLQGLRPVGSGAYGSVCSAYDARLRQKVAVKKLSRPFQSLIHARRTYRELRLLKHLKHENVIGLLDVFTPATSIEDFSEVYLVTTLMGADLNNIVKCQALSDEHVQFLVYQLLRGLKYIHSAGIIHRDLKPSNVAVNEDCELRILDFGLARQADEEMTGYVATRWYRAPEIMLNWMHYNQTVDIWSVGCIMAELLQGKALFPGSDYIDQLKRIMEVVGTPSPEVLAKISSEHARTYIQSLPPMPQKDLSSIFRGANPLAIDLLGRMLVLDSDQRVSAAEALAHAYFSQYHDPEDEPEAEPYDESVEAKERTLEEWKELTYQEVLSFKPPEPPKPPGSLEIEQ
Chain of Serine/threonine-protein kinase WNK1 (Homo sapiens) (Q9H4A3 whole entry, looked up): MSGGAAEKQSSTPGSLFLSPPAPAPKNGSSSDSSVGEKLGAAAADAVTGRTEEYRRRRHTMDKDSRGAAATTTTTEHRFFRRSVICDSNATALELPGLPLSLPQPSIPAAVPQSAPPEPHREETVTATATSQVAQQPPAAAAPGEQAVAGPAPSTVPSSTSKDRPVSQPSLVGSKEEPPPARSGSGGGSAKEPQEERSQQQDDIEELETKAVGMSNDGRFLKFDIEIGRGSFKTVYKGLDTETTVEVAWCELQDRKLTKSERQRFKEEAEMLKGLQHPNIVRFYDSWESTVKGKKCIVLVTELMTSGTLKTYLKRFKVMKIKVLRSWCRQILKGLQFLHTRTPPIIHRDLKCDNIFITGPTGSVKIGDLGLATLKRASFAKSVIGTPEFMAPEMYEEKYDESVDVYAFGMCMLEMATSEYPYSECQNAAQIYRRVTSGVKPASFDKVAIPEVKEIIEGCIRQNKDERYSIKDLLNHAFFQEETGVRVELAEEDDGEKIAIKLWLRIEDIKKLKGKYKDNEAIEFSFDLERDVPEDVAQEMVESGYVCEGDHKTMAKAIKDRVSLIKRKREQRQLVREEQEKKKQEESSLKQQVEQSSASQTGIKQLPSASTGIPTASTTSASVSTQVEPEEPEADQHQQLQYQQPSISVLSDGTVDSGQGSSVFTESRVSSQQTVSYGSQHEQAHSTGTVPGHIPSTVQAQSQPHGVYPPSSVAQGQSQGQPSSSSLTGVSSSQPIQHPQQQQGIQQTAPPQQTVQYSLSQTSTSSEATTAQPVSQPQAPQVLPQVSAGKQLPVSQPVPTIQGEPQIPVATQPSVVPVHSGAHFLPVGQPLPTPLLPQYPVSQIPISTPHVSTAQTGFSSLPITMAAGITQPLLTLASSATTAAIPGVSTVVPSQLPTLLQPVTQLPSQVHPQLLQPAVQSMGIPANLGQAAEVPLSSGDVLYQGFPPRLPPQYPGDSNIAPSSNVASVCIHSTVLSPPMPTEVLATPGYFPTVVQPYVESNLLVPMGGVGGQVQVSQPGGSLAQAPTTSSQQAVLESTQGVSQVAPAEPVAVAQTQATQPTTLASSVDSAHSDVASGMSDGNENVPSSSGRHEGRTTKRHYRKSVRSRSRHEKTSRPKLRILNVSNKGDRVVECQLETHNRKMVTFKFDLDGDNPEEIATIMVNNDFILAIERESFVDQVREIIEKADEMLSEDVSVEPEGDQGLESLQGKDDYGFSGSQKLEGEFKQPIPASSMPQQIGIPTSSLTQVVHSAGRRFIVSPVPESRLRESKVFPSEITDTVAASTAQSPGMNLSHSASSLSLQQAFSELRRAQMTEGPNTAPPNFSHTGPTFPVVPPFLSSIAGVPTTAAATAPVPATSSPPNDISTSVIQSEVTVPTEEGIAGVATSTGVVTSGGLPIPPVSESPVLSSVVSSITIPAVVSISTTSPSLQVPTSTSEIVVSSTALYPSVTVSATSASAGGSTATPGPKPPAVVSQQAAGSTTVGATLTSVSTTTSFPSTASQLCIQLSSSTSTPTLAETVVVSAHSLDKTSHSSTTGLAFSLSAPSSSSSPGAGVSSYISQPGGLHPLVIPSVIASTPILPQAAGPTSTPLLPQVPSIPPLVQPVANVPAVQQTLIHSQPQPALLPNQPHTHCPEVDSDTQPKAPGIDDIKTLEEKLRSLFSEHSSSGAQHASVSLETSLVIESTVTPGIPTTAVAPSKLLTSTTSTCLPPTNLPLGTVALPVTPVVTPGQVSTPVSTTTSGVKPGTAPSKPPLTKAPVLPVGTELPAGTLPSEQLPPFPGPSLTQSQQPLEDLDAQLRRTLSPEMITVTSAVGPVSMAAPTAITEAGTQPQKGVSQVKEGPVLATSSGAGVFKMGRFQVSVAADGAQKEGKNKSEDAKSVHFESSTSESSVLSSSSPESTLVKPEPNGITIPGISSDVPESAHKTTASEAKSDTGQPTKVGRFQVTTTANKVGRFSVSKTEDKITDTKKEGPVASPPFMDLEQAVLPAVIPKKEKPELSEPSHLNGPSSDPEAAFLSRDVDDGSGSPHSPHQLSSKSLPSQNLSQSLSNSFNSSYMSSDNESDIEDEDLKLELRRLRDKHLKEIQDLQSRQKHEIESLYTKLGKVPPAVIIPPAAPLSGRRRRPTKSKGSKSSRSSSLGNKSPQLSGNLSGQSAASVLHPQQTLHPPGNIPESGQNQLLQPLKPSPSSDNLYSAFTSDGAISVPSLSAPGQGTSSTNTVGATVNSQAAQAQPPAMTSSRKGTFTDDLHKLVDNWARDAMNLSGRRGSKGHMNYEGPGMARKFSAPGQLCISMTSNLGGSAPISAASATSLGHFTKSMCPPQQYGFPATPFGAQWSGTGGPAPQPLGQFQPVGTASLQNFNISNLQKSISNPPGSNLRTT
Chain of Histamine H1 receptor (P35367 whole entry): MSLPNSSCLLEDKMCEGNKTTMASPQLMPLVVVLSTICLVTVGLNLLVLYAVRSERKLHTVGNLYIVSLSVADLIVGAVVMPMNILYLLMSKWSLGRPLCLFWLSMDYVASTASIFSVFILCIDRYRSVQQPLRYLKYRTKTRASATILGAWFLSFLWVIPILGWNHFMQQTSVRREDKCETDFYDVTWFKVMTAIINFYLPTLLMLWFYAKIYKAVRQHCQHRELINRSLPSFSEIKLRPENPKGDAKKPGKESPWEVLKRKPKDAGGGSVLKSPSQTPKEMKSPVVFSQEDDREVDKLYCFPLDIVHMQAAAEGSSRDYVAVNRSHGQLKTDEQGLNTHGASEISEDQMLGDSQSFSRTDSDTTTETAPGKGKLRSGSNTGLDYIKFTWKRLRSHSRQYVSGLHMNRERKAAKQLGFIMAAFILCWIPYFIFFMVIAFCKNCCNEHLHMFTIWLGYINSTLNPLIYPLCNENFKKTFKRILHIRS
Chain of Serine/threonine-protein kinase Chk2 (Homo sapiens) (O96017 whole entry): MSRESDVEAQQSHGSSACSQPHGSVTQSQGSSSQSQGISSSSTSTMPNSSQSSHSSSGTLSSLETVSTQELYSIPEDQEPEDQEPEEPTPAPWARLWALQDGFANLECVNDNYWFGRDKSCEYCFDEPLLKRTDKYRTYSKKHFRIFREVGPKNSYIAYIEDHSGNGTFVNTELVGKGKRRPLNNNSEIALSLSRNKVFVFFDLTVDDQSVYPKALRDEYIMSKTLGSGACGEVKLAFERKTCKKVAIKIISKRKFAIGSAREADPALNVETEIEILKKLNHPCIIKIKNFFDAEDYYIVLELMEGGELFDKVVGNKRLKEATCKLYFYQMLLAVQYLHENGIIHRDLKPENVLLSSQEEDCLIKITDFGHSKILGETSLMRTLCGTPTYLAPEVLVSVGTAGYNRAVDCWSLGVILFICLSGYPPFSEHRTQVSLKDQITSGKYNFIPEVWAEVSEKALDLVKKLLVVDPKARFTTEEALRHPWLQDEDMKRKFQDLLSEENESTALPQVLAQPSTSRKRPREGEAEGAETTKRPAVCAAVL

With CCc1ccccc1C(=O)Nc1n[nH]c2c(C)c(F)c(C3C(C#N)=C(C)N(C)C(C)=C3C#N)cc12 [BAY-3827] the Ki [1] was 222 nM.

With COc1cc(Nc2nc(C)cc(-c3cnn4nc(OC)ccc34)n2)cc(C(F)(F)F)c1 the % of control [2] was 77% and the % of control [3] was 93%.

Compound O=C(NOC[C@H](O)CO)c1ccc(F)c(F)c1Nc1ccc(I)cc1F has a % of control [4] of 86%.

CC[C@@H]1[C@H](F)C(=O)N[C@@H]1COc1nccc2cc(C(N)=O)c(OC)cc12 [ZIMLOVISERTIB] was tested, and the % of inhibition [5] was 23.9%.

COCC(=O)NC/C=C/c1ccc2ncnc(Nc3ccc(Oc4ccc(C)nc4)c(C)c3)c2c1 [CP-724714] was tested, and the % of control [6] was 100%.

In the case of Cc1cnc(Nc2ccc(F)cc2Cl)nc1-c1c[nH]c(C(=O)N[C@H](CO)c2cccc(Cl)c2)c1, the % of inhibition [7] is reported as 2%.

Compound CN(C)C/C=C/C(=O)Nc1ccc(C(=O)N2CCCC(Nc3ncc(Cl)c(-c4c[nH]c5ccccc45)n3)C2)cc1 (centres undefined) has a % of control [8] of 87%.

With C=CC(=O)Nc1cc(-n2c(=O)ccc3cnc4ccc(-c5ccc(NS(C)(=O)=O)cc5)cc4c32)ccc1C the % of control ([9]; at 1 µM) was 90% and the % of control ([9]; at 10 µM) was 95%.

N#Cc1cccc(-c2c[nH]c3ncnc(N4CCOCC4)c23)c1 was tested, and the % of inhibition [10] was -6%.

Cn1cc(Nc2nccc(N3CC4CCC(C3)N4C(=O)[C@@H]3CC3(F)F)n2)cn1 showed a % of inhibition [11] of 64%.

COc1cc(C(=O)N2CC[C@@H](O)[C@@H](N)C2)cc2nc(-c3cc4ccccc4n3CC3CC3)n(C)c12 was tested, and the pXC50 (Histamine H1 receptor) was < 4.4 M.

Work on Cn1cc(-n2cnc3c(NCc4nc5cc(Cl)c(Cl)cc5[nH]4)nc(N4CCOCC4)nc32)cn1 yielded a % of inhibition [12] of 2.6%.
